The values below are quoted from earlier work in patent publication US20230372315A1, “Liquid-State Pharmaceutical Composition Exhibiting Excellent Preservative Effectiveness” (ISHIHARA SANGYO KAISHA, LTD., priority 2020, published 2023).

The conditions of data set [1]: beyond pH8.
The conditions of data set [2]: water having pH5 or less.

Consider `OCc1ccccc1` [Benzyl alcohol], for which the antibacterial activity result in data set [1] is reported as “virtually no antibacterial activity”.

Take `CCS(=O)(=O)Nc1ncc(C(F)(F)F)cc1NC(=O)C1CCCCC1` [N-(2-ethylsulfonylamino-5-trifluoromethyl-3-pyridyl)cyclohexanecarboxamide]: in data set [2], the solubility in water entry is recorded as “virtually not dissolved”.
